The values that follow come from ChEMBL document CHEMBL5260852, “Long-Acting Tumor-Activated Prodrug of a TGFβR Inhibitor” (J Med Chem, 2021).

The source made the active and inactive calls. The calls are words filed in the database; no cut-off is given here. Numbered stars: 1 amine (or outer) side, 2 acyl side, 3 side chain; on linkers, the order of the positions; unused ones are H or OH. Square brackets hold non-standard residues; d marks the D form. Peptide text beside a SMILES is read from it. * marks the point of attachment. X1 = N#Cc1cnc2ccc(-c3c(-c4ccc(F)c(Cl)c4)ncn3CCOCN*)nn12; C18 diacid = O=C(O)CCCCCCCCCCCCCCCCC(=O)*; γGlu = O=C(O)[C@H](CCC(=O)[*:2])N[*:1]; PABC = O=C(OCc1ccc(N[*:1])cc1)[*:2]; AEEA = NCCOCCOCC(=O)O

One may read the Tmax as the time at which the peak concentration occurs. What is called AUC(0-t) is exposure summed from dosing to a finite time, without extrapolation to infinity. By Cmax is commonly meant the highest concentration seen after dosing. Broadly, the AUC is concentration integrated over time.

The nature of data set [1]: Tmax in C57BL/6 mouse tumor xenografted mouse MC38 cells at 1.88 mg/kg,iv and measured after 72 hrs by LC-MS/MS analysis. Type of data set: ADME, organism-based, Neoplasm, MC-38.
Data set [2] is described as follows: Tmax in C57BL/6 mouse heart xenografted mouse MC38 cells at 1.88 mg/kg,iv and measured after 72 hrs by LC-MS/MS analysis. Type of data set: ADME, organism-based, MC-38.
Data set [3] is described as follows: Tmax in C57BL/6 mouse blood xenografted mouse MC38 cells at 1.88 mg/kg,iv and measured after 72 hrs by LC-MS/MS analysis. Type of data set: ADME, organism-based, MC-38.
Data set [4] is described as follows: Ratio of AUC in tumor to heart in C57BL/6 mouse xenografted mouse MC38 cells at 1.88 mg/kg,iv and measured after 72 hrs by LC-MS/MS analysis. Type of data set: ADME, organism-based. The note with it: in vivo.
The nature of data set [5]: Ratio of AUC in tumor to blood in C57BL/6 mouse xenografted mouse MC38 cells at 1.88 mg/kg,iv and measured after 72 hrs by LC-MS/MS analysis. The class given is ADME, organism-based. The following applies: read-out: Ratio AUC.
Data set [6] is described as follows: Ratio of AUC in heart to blood in C57BL/6 mouse xenografted mouse MC38 cells at 1.88 mg/kg,iv and measured after 72 hrs by LC-MS/MS analysis. The class given is ADME, organism-based. The note with it: read-out: Ratio AUC.
Data set [7] in a line: AUC (0 to 72 hrs) in C57BL/6 mouse tumor xenografted mouse MC38 cells at 1.88 mg/kg,iv and measured after 72 hrs by LC-MS/MS analysis. The class given is ADME, organism-based, Neoplasm, MC-38. Further details: dose 1.88 mg/kg, time 72 hrs, route iv.
A short description of data set [8]: AUC (0 to 72 hrs) in C57BL/6 mouse heart xenografted mouse MC38 cells at 1.88 mg/kg,iv and measured after 72 hrs by LC-MS/MS analysis. The class given is ADME, organism-based, MC-38. Also on record: time 72 hrs, dose 1.88 mg/kg, route iv.
A short description of data set [9]: AUC (0 to 72 hrs) in C57BL/6 mouse blood xenografted mouse MC38 cells at 1.88 mg/kg,iv and measured after 72 hrs by LC-MS/MS analysis. Type of data set: ADME, organism-based, MC-38. Further details: dose 1.88 mg/kg, time 72 hrs, route iv.
Data set [10] in a line: Cmax in C57BL/6 mouse tumor xenografted mouse MC38 cells at 1.88 mg/kg,iv and measured after 72 hrs by LC-MS/MS analysis. The class given is ADME, organism-based, Neoplasm, MC-38. Further details: dose 1.88 mg/kg, time 72 hrs, route iv.
The nature of data set [11]: Cmax in C57BL/6 mouse heart xenografted mouse MC38 cells at 1.88 mg/kg,iv and measured after 72 hrs by LC-MS/MS analysis. Type of data set: ADME, organism-based, MC-38. Further details: time 72 hrs, dose 1.88 mg/kg, route iv.
Data set [12] is described as follows: Cmax in C57BL/6 mouse blood xenografted mouse MC38 cells at 1.88 mg/kg,iv and measured after 72 hrs by LC-MS/MS analysis. Further details: time 72 hrs, dose 1.88 mg/kg, route iv. The class given is ADME, organism-based, MC-38.
Data set [13] in a line: AUC (0 to 72 hrs) in C57BL/6 mouse xenografted with mouse MC38 cells at 3.75 mg/kg,iv and measured after 4 weeks by LC-MS/MS analysis. The class given is ADME, organism-based, MC-38. Further details: dose 3.75 mg/kg, time 4 weeks, route iv. The note with it: in vivo.
Data set [14] in a line: Cmax in C57BL/6 mouse xenografted with mouse MC38 cells at 3.75 mg/kg,iv and measured after 4 weeks by LC-MS/MS analysis. Further details: dose 3.75 mg/kg, time 4 weeks, route iv. The class given is ADME, organism-based, MC-38. The note with it: in vivo.
Data set [15] is described as follows: AUC (0 to 24 hrs) in rat at 3 mg/kg,iv for 3 months. Type of data set: ADME, organism-based. Also on record: time 3 months, dose 3 mg/kg, route iv. The following applies: in vivo.
The nature of data set [16]: Drug concentration in C57BL/6 mouse plasma at 6 mg/kg,iv and measured after 24 hrs by LC-MS/MS analysis. Type of data set: ADME, organism-based.
Data set [17] is described as follows: AUC in C57BL/6 mouse plasma at 6 mg/kg,iv and measured upto 24 hrs by LC-MS/MS analysis. The class given is ADME, organism-based. Further details: dose 6 mg/kg, time < 24 hrs, route iv.
Data set [18] in a line: Stability in mouse plasma assessed as parent compound remaining after 24 hrs by HPLC-MS analysis. Type of data set: ADME, cell-free. The following applies: read-out: Stability.
Data set [19] can be described thus: Stability in rat plasma assessed as parent compound remaining after 24 hrs by HPLC-MS analysis. The class given is ADME, cell-free. The note with it: read-out: Stability.
Data set [20] in a line: Prodrug conversion in blood of C57BL/6 mouse xenografted mouse MC38 cells assessed as BMS-986260 Cmax at 8 mg/kg,iv and measured after 72 hrs by LC-MS/MS analysis. Type of data set: ADME, organism-based, MC-38. Further details: dose 8 mg/kg, time 72 hrs, route iv. The following applies: in vivo.
The nature of data set [21]: Prodrug conversion in heart of C57BL/6 mouse xenografted mouse MC38 cells assessed as BMS-986260 Cmax at 8 mg/kg,iv and measured after 72 hrs by LC-MS/MS analysis. Type of data set: ADME, organism-based, MC-38. Further details: dose 8 mg/kg, time 72 hrs, route iv. The following applies: in vivo.
Data set [22] is described as follows: Prodrug conversion in tumor of C57BL/6 mouse xenografted mouse MC38 cells assessed as BMS-986260 Cmax at 8 mg/kg,iv and measured after 72 hrs by LC-MS/MS analysis. The class given is ADME, organism-based, Neoplasm, MC-38. Further details: dose 8 mg/kg, time 72 hrs, route iv. The following applies: in vivo.
The nature of data set [23]: Prodrug conversion in blood of C57BL/6 mouse xenografted mouse MC38 cells assessed as BMS-986260 Tmax at 8 mg/kg,iv and measured after 72 hrs by LC-MS/MS analysis. The class given is ADME, organism-based, MC-38. The following applies: in vivo.
Data set [24] can be described thus: Prodrug conversion in heart of C57BL/6 mouse xenografted mouse MC38 cells assessed as BMS-986260 Tmax at 8 mg/kg,iv and measured after 72 hrs by LC-MS/MS analysis. Type of data set: ADME, organism-based, MC-38. The following applies: in vivo.
Data set [25] is described as follows: Prodrug conversion in tumor of C57BL/6 mouse xenografted mouse MC38 cells assessed as BMS-986260 Tmax at 8 mg/kg,iv and measured after 72 hrs by LC-MS/MS analysis. The class given is ADME, organism-based, Neoplasm, MC-38. The following applies: in vivo.
A short description of data set [26]: Prodrug conversion in blood of C57BL/6 mouse xenografted mouse MC38 cells assessed as BMS-986260 AUC (0 to 72 hrs) at 8 mg/kg,iv and measured after 72 hrs by LC-MS/MS analysis. Type of data set: ADME, organism-based, MC-38. The note with it: in vivo. Also on record: time 72 hrs, dose 8 mg/kg, route iv.
The nature of data set [27]: Prodrug conversion in heart of C57BL/6 mouse xenografted mouse MC38 cells assessed as BMS-986260 AUC (0 to 72 hrs) at 8 mg/kg,iv and measured after 72 hrs by LC-MS/MS analysis. Type of data set: ADME, organism-based, MC-38. Also on record: time 72 hrs, dose 8 mg/kg, route iv. The following applies: in vivo.
Data set [28] in a line: Prodrug conversion in tumor of C57BL/6 mouse xenografted mouse MC38 cells assessed as BMS-986260 AUC (0 to 72 hrs) at 8 mg/kg,iv and measured after 72 hrs by LC-MS/MS analysis. The class given is ADME, organism-based, Neoplasm, MC-38. Further details: time 72 hrs, dose 8 mg/kg, route iv. The following applies: in vivo.
Data set [29] in a line: Prodrug conversion in C57BL/6 mouse xenografted mouse MC38 cells assessed as BMS-986260 ratio of AUC in heart to blood at 8 mg/kg,iv and measured after 72 hrs by LC-MS/MS analysis. The class given is ADME, organism-based, MC-38. The note with it: other tissue.
Data set [30] can be described thus: Prodrug conversion in blood of C57BL/6 mouse xenografted mouse MC38 cells assessed as BMS-986260 ratio of AUC in tumor to blood at 8 mg/kg,iv and measured after 72 hrs by LC-MS/MS analysis. The class given is ADME, organism-based, MC-38. The following applies: tumour.
The nature of data set [31]: Prodrug conversion in blood of C57BL/6 mouse xenografted mouse MC38 cells assessed as BMS-986260 ratio of AUC in tumor to heart at 8 mg/kg,iv and measured after 72 hrs by LC-MS/MS analysis. The class given is ADME, organism-based, MC-38. The following applies: in vivo.
Data set [32] can be described thus: Toxicity in C57BL/6 mouse at 80 mg/kg,iv. The class given is organism-based. The following applies: in vivo.
The subject of the next data set is MC-38. The experiment in a line: Antitumor activity against mouse MC38 cells allografted in C57BL/6 mouse assessed as reduction in tumor volume at 40 to 80 mg/kg, iv for 4 weeks in presence of anti-PD-1 antibody. Type of data set: functional, organism-based. The following applies: dose 40-80 mg/kg.
The nature of data set [33]: AUC (0 to 72 hrs) in rat at 40 mg/kg,iv for 3 months. Type of data set: ADME, organism-based. Further details: time 3 months, dose 40 mg/kg, route iv. The following applies: in vivo.
Data set [34] can be described thus: AUC (0 to 72 hrs) in rat at 3 mg/kg,iv for 3 months. Type of data set: ADME, organism-based. The following applies: in vivo. Also on record: dose 3 mg/kg, time 3 months, route iv.
Data set [35] is described as follows: Toxicity in rat assessed as mortality at 3 mg/kg,iv for 3 months. The class given is organism-based. The note with it: in vivo, 2190 h.

Take `N#Cc1cnc2ccc(-c3c(-c4ccc(F)c(Cl)c4)ncn3CCO)nn12`: the Tmax in data set [1], in [2] and in data set [3] was 1 h each time. In addition, the “Ratio AUC” value in data set [4] came to 0.61. Moreover, the Kp at 72 h in [5] came out at 1.1; in data set [6], 1.7. Further, the exposure AUC(0-t) at 72 h in data set [7] stood at 6.1 µM·h; in [8], 10 µM·h; in data set [9], 5.8 µM·h. The peak concentration (Cmax) in data set [10] was 1500 nM; in data set [11], 2500 nM; in [12] it was 1400 nM; in data set [14] it was 1500 nM. The molecule also had an AUC(0-t) at 672 h in [13] of 39 µM·h. For the same molecule, the exposure AUC(0-t) at 2190 h in [15] stood at 27 µM·h.
For `CC(C)C[C@H](NC(=O)COCCOCCNC(=O)COCCOCCNC(=O)CC[C@H](NC(=O)CC[C@H](NC(=O)CCCCCCCCCCCCCCCCC(=O)O)C(=O)O)C(=O)O)C(=O)N[C@@H](CO)C(=O)NCC(=O)N[C@@H](CCCCN)C(=O)Nc1ccc(COC(=O)NCOCCn2cnc(-c3ccc(F)c(Cl)c3)c2-c2ccc3ncc(C#N)n3n2)cc1` ({C18 diacid-γGlu-γGlu-AEEA-AEEA}-LSGK[PABC]-X1), in data set [16], the concentration at 24 h amounted to 5200 nM. Further, in [17], the exposure (AUC) at 24 h amounted to 270 µM·h. Also, the remaining at 24 h in data set [18] came to 92%; in data set [19], 87%. Moreover, the values for the Cmax in [20], in [21] and in [22] were 120 nM, 200 nM and 310 nM, respectively. Moreover, the values for the Tmax in [23], in data set [24] and in data set [25] were 1 h, 8 h and 1 h, respectively. Besides, the AUC came out at 3.9 µM·h in [26], 6.7 µM·h in [27] and 12 µM·h in data set [28]. The figures for the “Ratio AUC” value in data set [29], in data set [30] and in data set [31] were 1.7, 3.1 and 1.8, respectively. Further, the Activity result in data set [32] and in data set [35] was “Non-Toxic” throughout. For the same molecule, the result in the data set on MC-38 was Active. Also, the exposure AUC(0-t) at 2190 h is 27 µM·h in data set [15], 81 µM·h in [33] and 15 µM·h in data set [34].
